Results as given in patent US8202996B2, “Crystalline forms of N-(tert-butoxycarbonyl)-3-methyl-L-valyl-(4R)-4-((7-chloro-4-methoxy-1-isoquinolinyl)oxy)-N- ((1R,2S)-1-((cyclopropylsulfonyl)carbamoyl)-2-vinylcyclopropyl)-L-prolinamide” (Bristol-Myers Squibb Company, priority 2007, dated 2012).

Experiments:
[1] = Interconversion of Forms H-1 and T1F-1/2 as a function of relative humidity; type: physicochemical; details: solid state, FIG. 1
[2] = Crystal form in aqueous solution / suspension in water; type: physicochemical; details: aqueous solutions / suspended in water

SMILES	relative humidity at which Compound (I) exists as a mixture of H-1 and T1F-1/2 [1]	form stability in water [2]	relative humidity at which Compound (I) exists as this crystalline form [1]
C=C[C@@H]1C[C@]1(NC(=O)[C@@H]1C[C@@H](Oc2ncc(OC)c3ccc(Cl)cc23)CN1C(=O)[C@@H](NC(=O)OC(C)(C)C)C(C)(C)C)C(=O)NS(=O)(=O)C1CC1 [Compound (I), N-(tert-butoxycarbonyl)-3-methyl-L-valyl-(4R)-4-((7-chloro-4-methoxy-1-isoquinolinyl)oxy)-N-((1R,2S)-1-((cyclopropylsulfonyl)carbamoyl)-2-vinylcyclopropyl)-L-prolinamide]	15-45 % relative humidity	exists as H-1	–
C=C[C@@H]1C[C@]1(NC(=O)[C@@H]1C[C@@H](Oc2ncc(OC)c3ccc(Cl)cc23)CN1C(=O)[C@@H](NC(=O)OC(C)(C)C)C(C)(C)C)C(=O)NS(=O)(=O)C1CC1 [Form H-1, N-(tert-butoxycarbonyl)-3-methyl-L-valyl-(4R)-4-((7-chloro-4-methoxy-1-isoquinolinyl)oxy)-N-((1R,2S)-1-((cyclopropylsulfonyl)carbamoyl)-2-vinylcyclopropyl)-L-prolinamide]	–	–	> 45 % relative humidity
C=C[C@@H]1C[C@]1(NC(=O)[C@@H]1C[C@@H](Oc2ncc(OC)c3ccc(Cl)cc23)CN1C(=O)[C@@H](NC(=O)OC(C)(C)C)C(C)(C)C)C(=O)NS(=O)(=O)C1CC1 [Form T1F-1/2, N-(tert-butoxycarbonyl)-3-methyl-L-valyl-(4R)-4-((7-chloro-4-methoxy-1-isoquinolinyl)oxy)-N-((1R,2S)-1-((cyclopropylsulfonyl)carbamoyl)-2-vinylcyclopropyl)-L-prolinamide]	–	rapidly converts to H-1	< 15 % relative humidity
